Experimental data: PMC11345839, “Synthesis and Characterization of Folic Acid-Conjugated Terbium Complexes as Luminescent Probes for Targeting Folate Receptor-Expressing Cells” (Journal of Medicinal Chemistry, 2024)

Columns and labels:
FR = settings: cited from earlier work
FRα = biological target: T1, FRα (Homo sapiens, UniProt P15328); assay: Folate-FITC binding competition assay (flow cytometry), FRα on KB cells; settings: competition with 10 nM Folate-FITC
T1 construct: Human KB nasopharyngeal epidermoid carcinoma cells (expressing FRα); endogenous in cells; host or cells: KB nasopharyngeal epidermoid carcinoma cells
T1 sequence (P15328 25-257): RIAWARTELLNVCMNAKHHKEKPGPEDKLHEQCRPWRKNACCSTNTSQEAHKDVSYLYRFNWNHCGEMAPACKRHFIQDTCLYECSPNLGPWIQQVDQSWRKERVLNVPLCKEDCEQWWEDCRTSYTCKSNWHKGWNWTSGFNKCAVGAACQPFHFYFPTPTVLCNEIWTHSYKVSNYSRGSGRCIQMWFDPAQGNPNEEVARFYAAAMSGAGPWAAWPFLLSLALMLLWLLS
Procedure: (§1) To assess the binding affinity of the terbium-folate conjugates, a flow cytometry binding competition assay was carried out with folate-FITC and increasing concentrations of terbium-folate conjugates with FRα and FRβ expressing cells. The affinity of FRα and FRβ for the terbium-folate conjugates is expressed relative to folic acid, which is given the value of 1.
(§2) Human KB nasopharyngeal epidermoid carcinoma cells (expressing FRα) and FRβ-transfected Chinese Hamster Ovary cells were cultured in Folate-free RPMI medium (Thermo Fisher Scientific) supplemented with 20% Newborn Calf Serum, 1% antibiotics (penicillin and streptomycin) and 25 mM HEPES, in a humidified 37 °C incubator with 5% CO2 as described by Van der Heijden et al.[4] The culture medium was refreshed every 3 days. Stock solutions (1 mM) of Tb-folate conjugates were made by dissolving in 50 mM NaHCO3 and stored at −20 °C until use. […] Flow cytometry data was analyzed in FlowJo v10.8 Software (BD Life Sciences). […] Data from 6–9 replicative experiments were analyzed. […]
(§3) Considering FRα and FRβ share the same affinity for folic acid and Folate-FITC, relative affinities for Tb-folate compounds were expressed relative to folic acid.[59],[60] The relative affinity was calculated using [drawing 1] […]

FRβ = biological target: T2, FRβ (Homo sapiens, UniProt P14207); assay: Folate-FITC binding competition assay (flow cytometry), FRβ on CHO/FRβ transfected cells; settings: competition with 1 nM Folate-FITC
T2 construct: expressed in transfected cells; host or cells: Chinese Hamster Ovary (CHO) cells
T2 sequence (P14207 17-255): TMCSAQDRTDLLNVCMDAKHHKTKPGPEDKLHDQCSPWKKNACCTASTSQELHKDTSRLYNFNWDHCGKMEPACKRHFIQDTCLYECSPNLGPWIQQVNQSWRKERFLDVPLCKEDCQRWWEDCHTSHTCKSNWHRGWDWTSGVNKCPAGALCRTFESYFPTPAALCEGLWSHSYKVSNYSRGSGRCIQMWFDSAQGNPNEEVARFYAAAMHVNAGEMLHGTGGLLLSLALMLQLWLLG
Procedure: as §1, §2, §3

[1] = parameters: method as in PMID 30296376; settings: λex = 776 nm; cited from earlier work
[2] = parameters: method as in PMID 30296376; settings: λex = 776 nm, λem = 793 nm; cited from earlier work
[3] = UV-vis absorption (molar extinction coefficient); type: physicochemical; settings: H2O, λmax = 281 nm, mixture of regioisomers
Source text: The absorption spectrum of folic acid is characterized by two absorption bands in the region of 250–300 and 300–400 nm, which correspond to the π → π* transition for the pterin and the n → π* transition for the p-amino benzoyl acid moieties respectively.[46] […] Differences are observed for TbL,^4 which is red-shifted and broadened due to the overlap with the acetophenone moiety; similar absorbance spectra of acetophenone-folate complexes have been reported by Quici et al.[16]
UV–vis spectra were recorded on a Cary60 UV–vis spectrophotometer fitted with a xenon source lamp or on a Jasco V-770 UV–visible/NIR spectrophotometer.

Molecule: CN1c2c(nc(N)[nH]c2=O)NCC1CNc1ccc(C(=O)N[C@@H](CCC(=O)O)C(=O)O)cc1 (stereo partly drawn) [5-methyltetrahydrofolate]
- FR affinity, fold lower than folic acid (FR): approximately 10 fold

Molecule: Nc1nc(=O)c2nc(CNc3ccc(C(=O)N[C@@H](CCC(=O)O)C(=O)O)cc3)cnc2[nH]1 [ChEBI_27470, folic acid]
- relative binding affinity to FRα (folic acid = 1) (FRα): 1
- relative binding affinity to FRβ (folic acid = 1) (FRβ): 1

Molecule: CC1(C)C(/C=C/C2=C(Oc3ccc(C[C@H](NC(=O)c4ccc(NCc5cnc6nc(N)[nH]c(=O)c6n5)cc4)C(=O)[O-])cc3)C(=C/C=C3\N(CCCCS(=O)(=O)[O-])c4ccc(S(=O)(=O)[O-])cc4C3(C)C)/CCC2)=[N+](CCCCS(=O)(=O)[O-])c2ccc(S(=O)(=O)[O-])cc21.[H+].[H+].[H+].[H+] [OTL38]
- ε (molar extinction coefficient) [1]: 272 000 M^–1 cm^–1
- Φ (quantum yield) [2]: 15.1%

Molecule: Folate-PEG6-DOTA [L^1αγ]
- ε (molar extinction coefficient) of free ligand [3]: 20013 M^–1 cm^–1
